Tests used:
[1] = system: hormone-susceptible DMBA-induced mammary gland cancer tumors; test: DMBA-induced hormone-susceptible mammary gland cancer in female rats, daily oral treatment; format: in vivo
[2] = system: mammalian cancer cells; details: in vitro, cited from earlier work
[3] = system: DMBA-induced mammary gland cancer; details: cited from earlier work; for per cent of complete regression (disappearance of tumor) / per cent of partial decrease of tumors / tumors which did not regress at all / per cent of general regression of all tumors: after 30 days of administration; for per cent of general regression of all tumors: oil solutions, about 15 mg/kg
[4] = system: induced mammary gland cancer; test: Induced mammary gland cancer in rats, long-term growing tumors with lost androgen susceptibility (Table 1); format: in vivo, White random-bred rats
[5] = system: hormone-susceptible malignant tumors in women; test: Clinical use in volunteer patients; details: long-term (up to 2 months) administration in low doses
Experimental: The duration of the course - 2 months.
The daily dose (with the patient's weight about 70 kg) consisted of 3 g DL-valine in combination with 25 mg (0.025 g or 5 tablets) methyltestosterone. The daile dose was divided into 3 single ones (1 g DL-valine in warm milk enterally and 1 tablet of methyltestosterone sublingually 3 times daily - on an empty stomach and before meals; and 1 tablet of methyltestosterone without DL-valine sublingually 2 times in the middle of the day before meals). The patient strictly observed the diet with the excess of protein, limited amount of carbohydrates and complete exclusion of animal fat and phospholipids (fish hard-roe, egg yolk), using no more than 1-2 table spoonfuls of vegetable oil daily.

Row | SMILES | per cent of complete regression (disappearance of tumor) [3] [%] | per cent of partial decrease of tumors [3] [%] | tumors which did not regress at all [3] [%] | per cent of general regression of all tumors [3] [%] | also measured
1 | CC(C)C(N)C(=O)O (racemic) [DL-valine] |  |  |  |  | regression effect ([1]; DL-valine 275 mg/kg in the mixture): disappears completely; optimal dose of DL-valine ([1]; in the mixture): 550 mg/kg; damage of non-malignant cells [2]: without any damage; cytotoxic effect on mammalian cancer cells ([2]; compared with other DL-amino acids): the strongest cytotoxic effect
2 | CCC(=O)O[C@H]1CC[C@H]2[C@@H]3CCC4=CC(=O)CC[C@]4(C)[C@H]3CC[C@]12C [testosterone propionate] | 10 | 30 | 60 | 40 | 
3 | COc1cc(C=NNC(=O)c2ccncc2)ccc1O [phthivazid] |  |  |  |  | optimal dose of phthivazid ([4]; with DL-valine and methandrostenolone, found empirically): 45-50 mg/kg body weight
4 | C[C@]12C=CC(=O)C=C1CC[C@@H]1[C@@H]2CC[C@@]2(C)[C@H]1CC[C@]2(C)O [methandrostenolone] |  |  |  |  | optimal dose of methandrostenolone in mixture with DL-valine ([4]; long-term growing tumors 10 cm³ or larger): 20-25 mg/kg body weight
5 | C[C@@H]1C[C@@]2(C)[C@@H](CC[C@@H]3[C@@H]2CC[C@]2(C)[C@@H](O)CC[C@@H]32)CC1=O [2α -methyldihydrotestosterone] | 20 | 60 | 20 | 80 | 
6 | C[C@]12CCC(=O)C=C1CC[C@@H]1[C@@H]2CC[C@@]2(C)[C@H]1CC[C@]2(C)O [methyltestosterone] |  |  |  |  | minimal effective dose ([1]; Rattus norvegicus, po, without DL-valine, read-out: dose from which methyltestosterone alone causes regression): ≥ 25 mg/kg; antiblastic effect alone, without DL-valine ([1]; nontherapeutic doses 5-10 mg/kg): cause no regression or even inhibition of the growth; better dose of methyltestosterone in combination with DL-valine ([1]; tumor sizes over 6.0 cm³ up to 8-10 cm³): 10 mg/kilo body weight; dose of methyltestosterone giving the optimal antiblastic effect in combination with DL-valine ([1]; tumors of 4.0 cm³ to 6.0 cm³): 5 mg per kilo body weight; experimental therapeutic dose ([3]; administered orally): 25-40 mg/kg per day; side effects [5]: weak manifestations of virilism
7 | CCC(=O)O[C@H]1CC[C@H]2[C@@H]3CC[C@H]4CC(=O)[C@H](C)C[C@]4(C)[C@H]3CC[C@]12C [2α-methyldihydrotestosterone propionate] | 50 | 20 | 30 | 70 | 
